Reference: patent publication EP4775208A1, “USE OF PRMT5 INHIBITOR IN TREATMENT OF TUMORS OR CANCERS” (Apeiron Therapeutics (Hong Kong) Ltd., priority 2023, dated 2025)
One block for each compound: values may come before it.

Assays:
Assay type in all cases: cell-based
LN18 MTAP(-/-) cells = test: Inhibition of proliferation of LN18 MTAP(-/-) cells (CellTiter-Glo); details: Homo sapiens, LN-18, 168 h, cell proliferation, 7 days
Method: Test 5: Assay for Inhibitory Activity of Compounds against LN18 MTAP(-/-) Cell Proliferation
(§1) Materials and Cells: The LN18 MTAP(-/-) cell line was provided by Cobioer Biosciences (China). Cell culture media, fetal bovine serum (FBS), and penicillin-streptomycin were purchased from Thermo Fisher Scientific (USA). 384-well plates were purchased from PerkinElmer (USA). The CellTiter-Glo assay kit was purchased from Promega (USA).
Cell Culture: LN18 MTAP(-/-) cells were cultured in a medium supplemented with 10% fetal bovine serum (FBS) and 1% penicillin-streptomycin at 37°C with 5% CO2. Only cells in the logarithmic growth phase were used for experiments.
(§2) Cell Proliferation Inhibition Assay: The antiproliferative activity of the compounds against LN18 MTAP(-/-) cells was assessed using the CellTiter-Glo assay kit. Cell suspensions were adjusted to the appropriate density and seeded into 384-well plates at a volume of 40 µL per well, then incubated overnight at 37°C with 5% CO2. Compounds (40 nL) were added to each well to achieve final concentrations ranging from 0 to 1,000 nM (starting concentration 1,000 nM, 3-fold serial dilutions, 9 dose points), with a final DMSO concentration of […]. The cell plates were incubated at 37°C with 5% CO2 for 7 days. Subsequently, 40 µL of CellTiter-Glo reagent was added to measure cell viability.

[1] = test system: LN18 MTAP-overexpressing cells; test: Inhibition of proliferation of LN18 MTAP-overexpressing cells (CellTiter-Glo); details: Homo sapiens, LN-18, 168 h, cell proliferation, 7 days
Description: Test 6: Assay for Inhibitory Activity of Compounds against LN18 MTAP-Overexpressing Cell Proliferatio
as §1, with “MTAP-overexpressing” for “MTAP(-/-)”, “purchased from” for “provided by”
Cell Culture: LN18 MTAP-overexpressing cells were cultured in a medium supplemented with 10% fetal bovine serum (FBS) and 1% penicillin-streptomycin at 37°C with 5% CO2. Only cells in the logarithmic growth phase were used for experiments.
as §2, with “MTAP-overexpressing” for “MTAP(-/-)”, “10,000” for “1,000”

U87MG MTAP(-/-) cells = test: Inhibition of proliferation of U87MG MTAP(-/-) cells (CellTiter-Glo); details: Homo sapiens, U-87 MG, 144 h, cell proliferation, 6 days
Method: Test 7: Assay for Inhibitory Activity of Compounds against U87MG MTAP(-/-) Cell Proliferation
as §1, with “U87MG” for “LN18”, “purchased from ATCC (USA).” for “provided by Cobioer Biosciences (China).”
Cell Culture: U87MG MTAP(-/-) cells were cultured in a medium supplemented with 10% fetal bovine serum (FBS) and 1% penicillin-streptomycin at 37°C with 5% CO2. Only cells in the logarithmic growth phase were used for experiments.
Cell Proliferation Inhibition Assay: The antiproliferative activity of the compounds against U87MG MTAP(-/-) cells was assessed using the CellTiter-Glo assay kit. Cell suspensions were adjusted to the appropriate density and seeded into 384-well plates at a volume of 40 µL per well, then incubated overnight at 37°C with 5% CO2. Compounds (40 nL) were added to each well to achieve final concentrations ranging from 0 to 10,000 nM (starting concentration 10,000 nM, 3-fold serial dilutions, 10 dose points), with a final DMSO concentration of […]. The cell plates were incubated at 37°C with 5% CO2 for 6 days. Subsequently, 40 µL of CellTiter-Glo reagent was added to measure cell viability. Paclitaxel was used as a control compound.

SW780 = test: Mini cell panel: inhibition of proliferation of SW780 cells; details: Homo sapiens, SW780, MTAP (-/-)
Description: (§3) Test 9: Mini Cell Panel: Assay for Inhibitory Activity of Compounds against Proliferation of 20 Tumor Cell Lines
(§4) Materials and Cells: Fifteen MTAP(-/-) cell lines and five MTAP wild-type cell lines were purchased from ATCC (USA). Cell culture media, fetal bovine serum (FBS), and penicillin-streptomycin were purchased from Thermo Fisher Scientific (USA). 384-well plates were purchased from PerkinElmer (USA). The CellTiter-Glo assay kit was purchased from Promega (USA). Paclitaxel was used as the control compound.

LN-18 = test: Mini cell panel: inhibition of proliferation of LN-18 cells; details: Homo sapiens, LN-18, MTAP (-/-)
Description: as §3, §4

MDA-MB-231 = test: Mini cell panel: inhibition of proliferation of MDA-MB-231 cells; details: Homo sapiens, MDA-MB-231, MTAP (-/-)
Description: as §3, §4

MKN-45 = test: Mini cell panel: inhibition of proliferation of MKN-45 cells; details: Homo sapiens, MKN-45, MTAP (-/-)
Description: as §3, §4

U87MG = test: Mini cell panel: inhibition of proliferation of U87MG cells; details: Homo sapiens, U-87 MG, MTAP (-/-)
Description: as §3, §4

ACHN = test: Mini cell panel: inhibition of proliferation of ACHN cells; details: Homo sapiens, ACHN, MTAP (-/-)
Description: as §3, §4

A549 = test: Mini cell panel: inhibition of proliferation of A549 cells; details: Homo sapiens, A549, MTAP (-/-)
Description: as §3, §4

LU99 = test: Mini cell panel: inhibition of proliferation of LU99 cells; details: Homo sapiens, Lu-99, MTAP (-/-)
Description: as §3, §4

NCI-H647 = test: Mini cell panel: inhibition of proliferation of NCI-H647 cells; details: Homo sapiens, NCI-H647, MTAP (-/-)
Description: as §3, §4

SW1573 = test: Mini cell panel: inhibition of proliferation of SW1573 cells; details: Homo sapiens, SW1573, MTAP (-/-)
Description: as §3, §4

DOHH-2 = test: Mini cell panel: inhibition of proliferation of DOHH-2 cells; details: Homo sapiens, DOHH-2, MTAP (-/-)
Description: as §3, §4

SK-MEL-5 = test: Mini cell panel: inhibition of proliferation of SK-MEL-5 cells; details: Homo sapiens, MTAP (-/-)
Description: as §3, §4

BxPc-3 = test: Mini cell panel: inhibition of proliferation of BxPc-3 cells; details: Homo sapiens, BXPC-3, MTAP (-/-)
Description: as §3, §4

PSN-1 = test: Mini cell panel: inhibition of proliferation of PSN-1 cells; details: Homo sapiens, PSN1, MTAP (-/-)
Description: as §3, §4

Calu-1 = test: Mini cell panel: inhibition of proliferation of Calu-1 cells; details: Homo sapiens, Calu-1, MTAP Wild type
Description: as §3, §4

SU-DHL-10 = test: Mini cell panel: inhibition of proliferation of SU-DHL-10 cells; details: Homo sapiens, SU-DHL10, MTAP Wild type
Description: as §3, §4

SU-DHL-4 = test: Mini cell panel: inhibition of proliferation of SU-DHL-4 cells; details: Homo sapiens, SU-DHL-4, MTAP Wild type
Description: as §3, §4

Aspc-1 = test: Mini cell panel: inhibition of proliferation of Aspc-1 cells; details: Homo sapiens, ASPC1, MTAP Wild type
Description: as §3, §4

CFPAC-1 = test: Mini cell panel: inhibition of proliferation of CFPAC-1 cells; details: Homo sapiens, CFPAC-1, MTAP Wild type
Description: as §3, §4

Compound: CN(C(=O)c1cc2c(cc1C#N)nc(N)c1cncn12)[C@@H]1COc2cc(C(F)(F)F)ccc21 [Example 14, (S)-4-amino-7-cyano-N-methyl-N-(6-(trifluoromethyl)-2,3-dihydrobenzofuran-3-yl)imi dazo[1,5-a]quinoxaline-8-carboxamide]
- IC50 (LN18 MTAP(-/-) cells): 5.56 nM
- IC50 [1]: 898 nM
- IC50 (U87MG MTAP(-/-) cells): 79.5 nM

- IC50 (U87MG MTAP(-/-) cells): 5.55 nM
- IC50 (SW780): 1.6 nM
- IC50 (MDA-MB-231): 2.5 nM
- IC50 (MKN-45): 1.8 nM
- IC50 (U87MG): 5.2 nM
- IC50 (ACHN): 4.1 nM
- IC50 (A549): 1.9 nM
- IC50 (NCI-H647): 1.4 nM
- IC50 (SW1573): 2.5 nM
- IC50 (SK-MEL-5): 7.8 nM
- IC50 (BxPc-3): 0.9 nM
- IC50 (Calu-1): 9.8 nM
- IC50 (SU-DHL-10): 2.8 nM
- IC50 (SU-DHL-4): 1.9 nM
- IC50 (Aspc-1): 3.4 nM
Compound: CC(=O)O[C@H]1C(=O)[C@@]2(C)[C@H]([C@H](OC(=O)c3ccccc3)[C@]3(O)C[C@H](OC(=O)[C@H](O)[C@@H](NC(=O)c4ccccc4)c4ccccc4)C(C)=C1C3(C)C)[C@]1(OC(C)=O)CO[C@@H]1C[C@@H]2O [Paclitaxel, reference compound]
- IC50 (LN-18): 20.6 nM
- IC50 (LU99): 1.5 nM
- IC50 (DOHH-2): 3.4 nM
- IC50 (PSN-1): 2.9 nM
- IC50 (CFPAC-1): 1.1 nM
